{"source": "PubChem BioAssay AID1259409", "about": "(Chemical Carcinogenesis Research Information System (CCRIS), 2018)", "origin": "cited, not measured here", "system": "rodent chemically induced tumor inhibition, incidence and multiplicity", "experiment": "CCRIS tumor inhibitor studies", "details": "Dose [Inhibitor]: 0, Route [Inhibitor]: ORAL, Promoter: NONE USED", "data": [{"smiles": "CC(C)=CCC/C(C)=C/C=C/C(C)=C/C=C/C(C)=C/C=C/C=C(C)/C=C/C=C(C)/C=C/C=C(\\C)CCC=C(C)C", "values": [{"measurement": "tumour outcome (control, treated, inhibition, significance)", "setting": "Carcinogen: DIETHYLNITROSAMINE, 55-18-5, N-METHYL-N-NITROSOUREA, 684-93-5, 1,2-DIMETHYLHYDRAZINE, 306-37-6, Carcinogen: DIETHYLNITROSAMINE, 55-18-5, N-METHYL-N-NITROSOUREA, 684-93-5, 1,2-DIMETHYLHYDRAZINE, 306-37-6, 25 PPM IN DRINKING WATER FOR 21 WK BEGINNING 2 WK POST CARCINOGEN TREATMENT (STUDY DURATION: 32 WK), Species: MOUSE, Strain/Sex: B6C3F1/MALE, Target Tissue: Type of Lesion: LUNG: ADENOMA, Dose [Carcinogen]: 10 MG/KG BW DEN ON DAYS 11 AND 32 OF AGE, 120 PPM MNU IN DRINKING WATER FROM WKS 4 TO 9, 20 MG/KG BW DMH 2/WK FOR 5 WK", "value": "11/16 (69%), 11/16 (69%), 0%, not significant"}, {"measurement": "tumour outcome (control, treated, inhibition, significance)", "setting": "Carcinogen: DIETHYLNITROSAMINE, 55-18-5, N-METHYL-N-NITROSOUREA, 684-93-5, 1,2-DIMETHYLHYDRAZINE, 306-37-6, Carcinogen: DIETHYLNITROSAMINE, 55-18-5, N-METHYL-N-NITROSOUREA, 684-93-5, 1,2-DIMETHYLHYDRAZINE, 306-37-6, 25 PPM IN DRINKING WATER FOR 21 WK BEGINNING 2 WK POST CARCINOGEN TREATMENT (STUDY DURATION: 32 WK), Species: MOUSE, Strain/Sex: B6C3F1/MALE, Target Tissue: Type of Lesion: LUNG: CARCINOMA, Dose [Carcinogen]: 10 MG/KG BW DEN ON DAYS 11 AND 32 OF AGE, 120 PPM MNU IN DRINKING WATER FROM WKS 4 TO 9, 20 MG/KG BW DMH 2/WK FOR 5 WK", "value": "1/16 (6%), 2/16 (13%), -116%, not significant"}, {"measurement": "tumour outcome (control, treated, inhibition, significance)", "setting": "Carcinogen: DIETHYLNITROSAMINE, 55-18-5, N-METHYL-N-NITROSOUREA, 684-93-5, 1,2-DIMETHYLHYDRAZINE, 306-37-6, Carcinogen: DIETHYLNITROSAMINE, 55-18-5, N-METHYL-N-NITROSOUREA, 684-93-5, 1,2-DIMETHYLHYDRAZINE, 306-37-6, 50 PPM IN DRINKING WATER FOR 21 WK BEGINNING 2 WK POST CARCINOGEN TREATMENT (STUDY DURATION: 32 WK), Species: MOUSE, Strain/Sex: B6C3F1/FEMALE, Target Tissue: Type of Lesion: LUNG: ADENOMA, Dose [Carcinogen]: 10 MG/KG BW DEN ON DAYS 11 AND 32 OF AGE, 120 PPM MNU IN DRINKING WATER FROM WKS 4 TO 9, 20 MG/KG BW DMH 2/WK FOR 5 WK", "value": "6/16 (38%), 8/15 (53%), -39%, not significant"}, {"measurement": "tumour outcome (control, treated, inhibition, significance)", "setting": "Carcinogen: DIETHYLNITROSAMINE, 55-18-5, N-METHYL-N-NITROSOUREA, 684-93-5, 1,2-DIMETHYLHYDRAZINE, 306-37-6, Carcinogen: DIETHYLNITROSAMINE, 55-18-5, N-METHYL-N-NITROSOUREA, 684-93-5, 1,2-DIMETHYLHYDRAZINE, 306-37-6, 50 PPM IN DRINKING WATER FOR 21 WK BEGINNING 2 WK POST CARCINOGEN TREATMENT (STUDY DURATION: 32 WK), Species: MOUSE, Strain/Sex: B6C3F1/MALE, Target Tissue: Type of Lesion: LUNG: ADENOMA, Dose [Carcinogen]: 10 MG/KG BW DEN ON DAYS 11 AND 32 OF AGE, 120 PPM MNU IN DRINKING WATER FROM WKS 4 TO 9, 20 MG/KG BW DMH 2/WK FOR 5 WK", "value": "11/16 (69%), 3/16 (19%), 72%, p<0.02"}, {"measurement": "tumour outcome (control, treated, inhibition, significance)", "setting": "Carcinogen: DIETHYLNITROSAMINE, 55-18-5, N-METHYL-N-NITROSOUREA, 684-93-5, 1,2-DIMETHYLHYDRAZINE, 306-37-6, Carcinogen: DIETHYLNITROSAMINE, 55-18-5, N-METHYL-N-NITROSOUREA, 684-93-5, 1,2-DIMETHYLHYDRAZINE, 306-37-6, 50 PPM IN DRINKING WATER FOR 21 WK BEGINNING 2 WK POST CARCINOGEN TREATMENT (STUDY DURATION: 32 WK), Species: MOUSE, Strain/Sex: B6C3F1/MALE, Target Tissue: Type of Lesion: LUNG: CARCINOMA, Dose [Carcinogen]: 10 MG/KG BW DEN ON DAYS 11 AND 32 OF AGE, 120 PPM MNU IN DRINKING WATER FROM WKS 4 TO 9, 20 MG/KG BW DMH 2/WK FOR 5 WK", "value": "1/16 (6%), 0/16 (0%), 100%, not significant"}, {"measurement": "tumour outcome (control, treated, inhibition, significance)", "setting": "Carcinogen: N-BUTYL-N-(4-HYDROXYBUTYL)NITROSAMINE, 3817-11-6, 0.0025% IN DRINKING WATER FOR 12 WK BEGINNING POST CARCINOGEN TREATMENT (STUDY DURATION: 20 WK), Species: RAT, Strain/Sex: F344/MALE, Target Tissue: Type of Lesion: URINARY BLADDER: TRANSITIONAL CELL CARCINOMA, Dose [Carcinogen]: 0.05% IN DRINKING WATER FOR 8 WK", "value": "10/12 (83%), 10/12 (83%), 0%, not significant"}, {"measurement": "tumour outcome (control, treated, inhibition, significance)", "setting": "Carcinogen: N-METHYLNITROSAUREA, 684-93-5, 17 PPM IN TOMATO JUICE AND WATER (1:2) AS DRINKING FLUID FOR DURATION OF STUDY (STUDY DURATION: 35 WK), Species: RAT, Strain/Sex: F344/FEMALE, Target Tissue: Type of Lesion: COLON: TUMOR, Dose [Carcinogen]: 0.4% (0.5 ML) AQUEOUS SOLUTION 3/WK FOR 3 WK", "value": "13/24 (54%), 5/24 (21%), 61%, p<0.02"}, {"measurement": "tumour outcome (control, treated, inhibition, significance)", "setting": "Carcinogen: N-METHYLNITROSOUREA, 684-93-5, 3.4 PPM IN TOMATO JUICE AND WATER (1:14) AS DRINKING FLUID FOR DURATION OF STUDY (STUDY DURATION: 35 WK), Species: RAT, Strain/Sex: F344/FEMALE, Target Tissue: Type of Lesion: COLON: TUMOR, Dose [Carcinogen]: 0.8% (0.5 ML) AQUEOUS SOLUTION 3/WK FOR 3 WKS", "value": "21/25 (84%), 18/25 (72%), 14%, not significant"}, {"measurement": "tumour outcome (control, treated, inhibition, significance)", "setting": "Carcinogen: N-METHYLNITROSOUREA, 684-93-5, 17 PPM IN DRINKING WATER FOR DURATION OF STUDY (STUDY DURATION: 35 WK), Species: RAT, Strain/Sex: F344/FEMALE, Target Tissue: Type of Lesion: COLON: TUMOR, Dose [Carcinogen]: 0.4% (0.5 ML) AQUEOUS SOLUTION 3/WK FOR 3 WK", "value": "13/24 (54%), 8/24 (33%), 39%, not significant"}, {"measurement": "tumour outcome (control, treated, inhibition, significance)", "setting": "Carcinogen: N-METHYLNITROSOUREA, 684-93-5, 17 PPM IN TOMATO JUICE AND WATER (1:2) AS DRINKING FLUID FOR DURATION OF STUDY (STUDY DURATION: 35 WK), Species: RAT, Strain/Sex: F344/FEMALE, Target Tissue: Type of Lesion: COLON: TUMOR, Dose [Carcinogen]: 0.8% (0.5 ML) AQUEOUS SOLUTION 3/WK FOR 3 WK", "value": "21/25 (84%), 10/25 (40%), 52%, p<0.01"}]}]}
